± gives the expanded uncertainty stated by the source.

The source of these data is the NIST ThermoML archive (doi:10.1021/je900058p).

For series [1] the following is noted: Liquid; for mass density: 293.13 K, 101.33 kPa.
Series [2] in a line: refractive index (Na D-line) (dimensionless). Conditions: 293.13 K; 101.33 kPa; Liquid; Standard Abbe refractometry.

Take `CCCCC(C)=O` [2-hexanone]: the mass density in series [1] is recorded as 811.2 ± 0.4 kg/m3. For the same molecule, the “vapor or sublimation pressure” value in series [1] (359.51 K) is recorded as 26.66 ± 0.27 kPa; in series [1] (379.52 K), 53.33 ± 0.32 kPa; in series [1] (392.57 K), 79.99 ± 0.45 kPa; in series [1] (400.69 K), 101.32 ± 0.53 kPa. In addition, the refractive index in series [2] came out at 1.4008 ± 0.0007.
As for `COc1ccccc1` [anisole], the mass density in series [1] is on record as 994.1 ± 0.2 kg/m3. Also, the “vapor or sublimation pressure” value was 26.66 ± 0.25 kPa in series [1] (383.1 K), 53.33 ± 0.3 kPa in series [1] (404.24 K), 79.99 ± 0.43 kPa in series [1] (417.99 K) and 101.32 ± 0.5 kPa in series [1] (426.54 K). In addition, the refractive index in series [2] came out at 1.5171 ± 0.0007.
In the case of `CCCCCO` [pentan-1-ol], in series [1], the mass density is given as 814.5 ± 0.4 kg/m3. The “vapor or sublimation pressure” value in series [1] (410.86 K) came out at 101.32 ± 1 kPa. For the same molecule, the refractive index in series [2] came out at 1.4098 ± 0.0007.

Broadly, the mass density is mass per unit of volume. In general, vapor or sublimation pressure refers to the equilibrium pressure above the liquid or solid. One may read the refractive index as a measure of how strongly the sample bends light.
